Experimental findings from US11046699B2, “Pyrazolo-pyrimidin-amino-cycloalkyl compounds and their therapeutic uses” (RAPT THERAPEUTICS, INC., priority 2018, dated 2021) are described below.

Bounds are passed on as bounds.

Sequence of GCN2 (Q9P2K8 whole entry): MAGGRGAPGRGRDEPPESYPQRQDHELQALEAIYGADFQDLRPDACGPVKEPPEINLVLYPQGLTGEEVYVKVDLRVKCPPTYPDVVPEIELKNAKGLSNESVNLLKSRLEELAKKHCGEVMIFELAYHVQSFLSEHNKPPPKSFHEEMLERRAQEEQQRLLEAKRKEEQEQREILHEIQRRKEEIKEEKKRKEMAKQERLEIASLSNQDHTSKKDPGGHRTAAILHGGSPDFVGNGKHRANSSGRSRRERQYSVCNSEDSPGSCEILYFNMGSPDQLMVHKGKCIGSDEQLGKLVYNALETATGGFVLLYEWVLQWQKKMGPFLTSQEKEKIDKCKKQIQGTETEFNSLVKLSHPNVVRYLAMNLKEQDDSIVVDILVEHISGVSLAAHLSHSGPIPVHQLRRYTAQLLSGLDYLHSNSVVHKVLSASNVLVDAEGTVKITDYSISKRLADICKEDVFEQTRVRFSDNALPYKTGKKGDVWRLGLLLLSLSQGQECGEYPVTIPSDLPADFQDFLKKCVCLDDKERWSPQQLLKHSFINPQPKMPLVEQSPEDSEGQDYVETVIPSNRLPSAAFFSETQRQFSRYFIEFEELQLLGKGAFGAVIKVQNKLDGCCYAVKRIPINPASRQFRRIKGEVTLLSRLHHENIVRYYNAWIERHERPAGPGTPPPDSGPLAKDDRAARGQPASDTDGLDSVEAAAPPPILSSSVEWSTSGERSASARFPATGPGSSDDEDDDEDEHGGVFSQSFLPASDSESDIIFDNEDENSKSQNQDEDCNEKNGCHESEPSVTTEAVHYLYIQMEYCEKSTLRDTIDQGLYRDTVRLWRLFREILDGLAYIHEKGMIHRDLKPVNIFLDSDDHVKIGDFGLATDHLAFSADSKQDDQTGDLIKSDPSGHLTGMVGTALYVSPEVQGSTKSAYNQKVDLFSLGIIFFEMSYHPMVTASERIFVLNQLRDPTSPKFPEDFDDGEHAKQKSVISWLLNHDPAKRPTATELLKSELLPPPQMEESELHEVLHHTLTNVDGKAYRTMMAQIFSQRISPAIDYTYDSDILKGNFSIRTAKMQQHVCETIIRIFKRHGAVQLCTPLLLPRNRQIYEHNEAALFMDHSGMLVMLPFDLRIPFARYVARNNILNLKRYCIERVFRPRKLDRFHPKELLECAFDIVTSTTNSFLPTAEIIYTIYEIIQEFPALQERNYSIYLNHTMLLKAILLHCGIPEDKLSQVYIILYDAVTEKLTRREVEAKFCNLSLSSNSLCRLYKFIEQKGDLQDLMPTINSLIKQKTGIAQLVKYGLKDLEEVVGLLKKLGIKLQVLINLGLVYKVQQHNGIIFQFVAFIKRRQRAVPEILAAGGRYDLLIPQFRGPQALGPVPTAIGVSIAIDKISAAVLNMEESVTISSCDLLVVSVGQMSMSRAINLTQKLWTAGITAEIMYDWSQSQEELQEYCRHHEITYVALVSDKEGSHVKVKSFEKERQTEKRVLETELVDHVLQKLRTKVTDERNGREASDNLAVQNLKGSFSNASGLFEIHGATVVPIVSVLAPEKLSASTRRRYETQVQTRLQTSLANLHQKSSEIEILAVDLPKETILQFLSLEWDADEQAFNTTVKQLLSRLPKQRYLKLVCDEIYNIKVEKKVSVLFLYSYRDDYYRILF

The assay deals with GCN2 (Homo sapiens, UniProt Q9P2K8). The assay can be described thus: GCN2 enzymatic endpoint assay: phosphorylation of GFP-eIF2α measured by TR-FRET (Lanthascreen). In kind it is biochemical. The settings on record: tested as described in Example 77; compound and/or hydrochloride, dihydrochloride or trifluoroacetic acid salt; read-out: IC 50 Activity. The essentials:
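Endpoint GCN2 reaction with low ATP (2 μM) and 80 nM GFP-eIF2α, room temperature, 90 minutes. Detection mix with EDTA and Tb-labelled antibody; 520 nm/495 nm emission ratio reported.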
(In general: TR-FRET usually uses a lanthanide donor and a delayed reading to cut background.)
As to `OC1CC(Nc2ncc3c(Br)nn(-c4cc(F)c5ncccc5c4)c3n2)C1` (stereo not shown) [3-[[3-bromo-1-(8-fluoro-6-quinolyl)pyrazolo[3,4-d]pyrimidin-6-yl]amino] cyclobutanol], the IC50 was 25 to 200 nM. As for `C[C@@]1(CO)CC[C@@H](Nc2ncc3c(Br)nn(-c4cc(CCN)c5ncccc5c4)c3n2)C1`, the IC50 is 25 to 200 nM. Then `CNC(=O)[C@@]1(COC)CC[C@@H](Nc2ncc3c(I)nn(-c4cc(F)c5ncccc5c4)c3n2)C1` [(1S,3R)-3-[[1-(8-fluoro-6-quinolyl)-3-iodo-pyrazolo[3,4-d]pyrimidin-6-yl]amino]-1-(methoxymethyl)-N-methyl-cyclopentane-carboxamide], with 25 to 200 nM; and `CNC(=O)[C@@]1(C)CC[C@@H](Nc2ncc3c(I)nn(-c4ccc(-c5nnc(C)o5)cc4)c3n2)C1` [(1S,3R)-3-[[3-iodo-1-[4-(5-methyl-1,3,4-oxadiazol-2-yl)phenyl]pyrazolo[3,4-d]pyrimidin-6-yl]amino]-N,1-dimethyl-cyclopentanecarboxamide], with 25 to 200 nM; and `C[C@@H]1CNC[C@H](C)N1C(=O)[C@@H]1CC[C@@H](Nc2ncc3c(Br)nn(-c4ccc5ncccc5c4)c3n2)C1` [((1R,3R)-3-((3-bromo-1-(quinolin-6-yl)-1H-pyrazolo[3,4-d]pyrimidin-6-yl)amino)cyclo-pentyl)((2R,6S)-2,6-dimethylpiperazin-1-yl)methanone], with less than 25 nM. Take `CNC(=O)[C@]1(C)CC[C@@H](Nc2ncc3c(Br)nn(-c4ccc(-c5nnc(C(C)(C)N)s5)c(C#N)c4)c3n2)C1` [(1R,3R)-3-[[1-[4-[5-(1-amino-1-methyl-ethyl)-1,3,4-thiadiazol-2-yl]-3-cyano-phenyl]-3-bromo-pyrazolo[3,4-d]pyrimidin-6-yl]amino]-N,1-dimethyl-cyclopentanecarboxamide]: the IC50 lay in the range of 25 to 200 nM. Then `COCCNS(=O)(=O)[C@H]1CC[C@@H](Nc2ncc3c(Br)nn(-c4ccc(-c5nnc(C)s5)cc4)c3n2)C1` [(1S,3R)-3-[[3-bromo-1-[4-(5-methyl-1,3,4-thiadiazol-2-yl)phenyl]pyrazolo[3,4-d]pyrimidin-6-yl]amino]-N-(2-methoxyethyl)cyclopentanesulfonamide], with 25 to 200 nM; and `CNC(=O)[C@]1(C)CC[C@@H](Nc2ncc3c(Br)nn(-c4cc(F)c5nc(C)cc(O)c5c4)c3n2)C1` [(1R,3R)-3-[[3-bromo-1-(8-fluoro-4-hydroxy-2-methyl-6-quinolyl)pyrazolo[3,4-d]pyrimidin-6-yl]amino]-N,1-dimethyl-cyclopentanecarboxamide], with 25 to 200 nM. Then `CNC(=O)[C@]1(C)CC[C@@H](Nc2ncc3c(Br)nn(-c4ccc(-c5nnc(C(C)CC#N)o5)cc4)c3n2)C1` (stereo partly drawn) [(1R,3R)-3-[[3-bromo-1-[4-[5-(2-cyano-1-methyl-ethyl)-1,3,4-oxadiazol-2-yl]phenyl]pyrazolo[3,4-d]pyrimidin-6-yl]amino]-N,1-dimethyl-cyclopentanecarboxamide], with less than 25 nM; and `CNC(=O)[C@]1(C)CC[C@@H](Nc2ncc3c(Br)nn(-c4cc(Cl)cc(CN=S(C)(=O)O)c4)c3n2)C1`, with 25 to 200 nM; and `CNC(=O)[C@]1(OC)CC[C@@H](Nc2ncc3c(Br)nn(-c4cc(F)c5ncccc5c4)c3n2)C1` [(1S,3R)-3-[[3-bromo-1-(8-fluoro-6-quinolyl)pyrazolo[3,4-d]pyrimidin-6-yl]amino]-1-methoxy-N-methyl-cyclopentanecarboxamide], with 25 to 200 nM.

As for `O=C(NCCO)[C@@H]1CC[C@@H](Nc2ncc3c(Br)nn(-c4cc(F)c5ncccc5c4)c3n2)C1` [(1R,3R)-3-((3-bromo-1-(8-fluoroquinolin-6-yl)-1H-pyrazolo[3,4-d]pyrimidin-6-yl)amino)-N-(2-hydroxyethyl)cyclopentane-1-carboxamide], the IC50 lay within 25 to 200 nM.

Turning to `CNC(=O)C1(C)CC[C@@H](Nc2ncc3c(Br)nn(-c4ccc(-c5cnccn5)cc4)c3n2)C1` (stereo partly drawn) [(3R)-3-[[3-bromo-1-(4-pyrazin-2-ylphenyl)pyrazolo[3,4-d]pyrimidin-6-yl]amino]-N,1-dimethyl-cyclopentanecarboxamide], the IC50 is 25 to 200 nM. Then `C[C@@]1(C(=O)N2CCN3C(=O)COCC3C2)CC[C@@H](Nc2ncc3c(Br)nn(-c4cc(F)c5ncccc5c4)c3n2)C1` (stereo partly drawn) [8-[(1R,3R)-3-[[3-bromo-1-(8-fluoro-6-quinolyl)pyrazolo[3,4-d]pyrimidin-6-yl]amino]-1-methyl-cyclopentane-carbonyl]-6,7,9,9a-tetrahydro-1H-pyrazino[2,1-c][1,4]oxazin-4-one], with 25 to 200 nM. With `CNC(=O)[C@]1(C)CC[C@@H](Nc2ncc3c(Br)nn(-c4ccc5nccc(OC)c5c4)c3n2)C1` [(1R,3R)-3-[[3-bromo-1-(4-methoxy-6-quinolyl)pyrazolo[3,4-d]pyrimidin-6-yl]amino]-N,1-dimethyl-cyclopentanecarboxamide] the figure was less than 25 nM; with `CNC(=O)[C@]1(C)CC[C@@H](Nc2ncc3c(Br)nn(-c4ccc5c(c4)S(=O)(=O)CC(=O)N5C)c3n2)C1`, 25 to 200 nM. With `CC1(C(N)=O)CC[C@@H](Nc2ncc3c(Br)nn(-c4ccc(-c5ncco5)c(F)c4)c3n2)C1` (stereo partly drawn) [(3R)-3-[[3-bromo-1-(3-fluoro-4-oxazol-2-yl-phenyl)pyrazolo[3,4-d]pyrimidin-6-yl]amino]-1-methyl-cyclopentanecarboxamide] the figure was less than 25 nM; with `C[C@@H]1C(=O)N(C)CCN1C(=O)[C@@H]1CC[C@@H](Nc2ncc3c(Br)nn(-c4cc(C#N)c5ncccc5c4)c3n2)C1` [6-(3-bromo-6-(((1R,3R)-3-((R)-2,4-dimethyl-3-oxopiperazine-1-carbonyl)cyclopentyl)amino)-1H-pyrazolo[3,4-d]pyrimidin-1-yl) quinoline-8-carbonitrile], less than 25 nM; with `COC[C@H](C)NC(=O)[C@@H]1CC[C@@H](Nc2ncc3c(Br)nn(-c4ccc5ncccc5c4)c3n2)C1` [(1R,3R)-3-((3-bromo-1-(quinolin-6-yl)-1H-pyrazolo[3,4-d]pyrimidin-6-yl)amino)-N-((S)-1-methoxypropan-2-yl)cyclopentane-1-carboxamide], 25 to 200 nM. Consider `CNC(=O)[C@]1(C)CC[C@@H](Nc2ncc3c(Br)nn(-c4cc(Cl)cc(OCC5(F)CNC5)c4)c3n2)C1` [(1R,3R)-3-[[3-bromo-1-[3-chloro-5-[(3-fluoroazetidin-3-yl)methoxy]phenyl]pyrazolo[3,4-d]pyrimidin-6-yl]amino]-N,1-dimethyl-cyclopentanecarboxamide], for which the IC50 is less than 25 nM. For the compound `N#Cc1cc(-n2nc(Br)c3cnc(N[C@@H]4CC[C@@H](C(=O)NC5CCC(C#N)C5)C4)nc32)cc2cccnc12` (stereo partly shown), the IC50 lay within 25 to 200 nM. With `CNC(=O)[C@]1(C)CC[C@@H](Nc2ncc3c(Br)nn(-c4ccc5ncnn5c4)c3n2)C1` [(1R,3R)-3-[[3-bromo-1-([1,2,4]triazolo[1,5-a]pyridin-6-yl)pyrazolo[3,4-d]pyrimidin-6-yl]amino]-N,1-dimethyl-cyclopentane-carboxamide], the IC50 lay within 25 to 200 nM. With `CN1CCN(C(=O)[C@@H]2CC[C@@H](Nc3ncc4c(Br)nn(-c5cnc6c(Cl)nccc6c5)c4n3)C2)CC1=O` [4-((1R,3R)-3-((3-bromo-1-(8-chloro-1,7-naphthyridin-3-yl)-1H-pyrazolo[3,4-d]pyrimidin-6-yl)amino)cyclopentane-1-carbonyl)-1-methylpiperazin-2-one] the figure was 25 to 200 nM.

Regarding `CNC(=O)[C@]1(C)CC[C@@H](Nc2ncc3c(Br)nn(-c4cc(CCC#N)c5c(c4)CCC(=O)N5C)c3n2)C1` [(1R,3R)-3-[[3-bromo-1-[8-(2-cyanoethyl)-1-methyl-2-oxo-3,4-dihydroquinolin-6-yl]pyrazolo[3,4-d]pyrimidin-6-yl]amino]-N,1-dimethyl-cyclopentanecarboxamide], the IC50 lay within 25 to 200 nM. Then `CNC(=O)[C@]1(C)CC[C@@H](Nc2ncc3c(Br)nn(-c4cc(Cl)cc([C@@H](C)N)c4)c3n2)C1`, with less than 25 nM; and `CNC(=O)[C@]1(C)CC[C@@H](Nc2ncc3c(Br)nn(-c4ccc(-c5nnc(C(C)N)s5)cc4)c3n2)C1` (stereo partly drawn) [(1R,3R)-3-[[1-[4-[5-(1-aminoethyl)-1,3,4-thiadiazol-2-yl]phenyl]-3-bromo-pyrazolo [3,4-d]pyrimidin-6-yl]amino]-N,1-dimethyl-cyclopentanecarboxamide], with 25 to 200 nM. For `CNC(=O)[C@]1(C)CC[C@@H](Nc2ncc3c(Br)nn(-c4ccc(C#N)c(OCCO)c4)c3n2)C1` [(1R,3R)-3-[[3-bromo-1-[4-cyano-3-(2-hydroxyethoxy)phenyl]pyrazolo[3,4-d]pyrimidin-6-yl]amino]-N,1-dimethyl-cyclopentanecarboxamide], the IC50 was in the range of 25 to 200 nM. Regarding `CNC(=O)[C@]1(C(F)(F)F)CC[C@@H](Nc2ncc3c(Br)nn(-c4cc(F)c5ncccc5c4)c3n2)C1` [(1S,3R)-3-[[3-bromo-1-(8-fluoro-6-quinolyl)pyrazolo[3,4-d]pyrimidin-6-yl]amino]-N-methyl-1-(trifluoromethyl)cyclopentane-carboxamide], the IC50 fell in the range of 25 to 200 nM. Turning to `CNC(=O)[C@]1(C)CC[C@@H](Nc2ncc3c(Br)nn(-c4ccc(-c5nnco5)cc4)c3n2)C1` [(1R,3R)-3-[[3-bromo-1-[4-(1,3,4-oxadiazol-2-yl)phenyl]pyrazolo[3,4-d]pyrimidin-6-yl]amino]-N,1-dimethyl-cyclopentane-carboxamide], the IC50 was 25 to 200 nM.

On to `CNC(=O)[C@]1(C)CC[C@@H](Nc2ncc3c(Br)nn(-c4ccc(-c5ncco5)c(NC(=O)[C@@H]5CCNC5)c4)c3n2)C1` [(3R)-N-[5-[3-bromo-6-[[(1R,3R)-3-methyl-3-(methylcarbamoyl)cyclopentyl]amino]pyrazolo[3,4-d]pyrimidin-1-yl]-2-oxazol-2-yl-phenyl]pyrrolidine-3-carboxamide], for which the IC50 was less than 25 nM. Then `CNc1ncc2cc(-n3nc(Br)c4cnc(N[C@@H]5CCC(C)(O)C5)nc43)ccc2n1` (stereo partly shown), with 25 to 200 nM.
